Experimental data reported in patent publication EP1306084A1, “Compositions for the control of parasitic infestations in fish” (Alpharma AS, priority 1998, dated 1999).

Key:
sea lice [1] = experiment: Oral hexaflumuron treatment of naturally sea lice infected salmon in sea cages (Example 1); assay type: in vivo, Atlantic salmon (Salmo salar); conditions: 9 mg per kg each day for 10 days
Description: The treatment dosage was 9 mg hexaflumuron per kg fish per day for 10 days. This is indicated by "Groups/Timepoints" in the figure; • Figure 2 relates to the trial in Example 2 that was carried out on Atlantic salmon (Salmo salar). […] The treatment dosage varied between 3 - 9 mg hexaflumuron and 9- 12 mg fluazuron per kg fish per day for 7 days. This is indicated by "Groups/Timepoints" in the diagram. […] The treated groups are compared to an untreated control group. The treatment dosage was 4 mg hexaflumuron per kg fish per day for 5 days. This is indicated by "Groups/Timepoints" in the figure. Cage 2 = controls, Cage 4-6 = treated groups, 16.6.97 = time point for sea transfer and 5.8.97= controls treated by bathing with deltamethrin; • Figure 4 relates to the trial described in Example 5, which was carried out on sea trout (Salmo trutta). […] The treated groups are compared with an untreated control group. The dosage for oral treatment was 4 mg hexaflumuron per kilo fish per day for 5 days, and 5 ppm hexaflumuron as a 30 minute bath treatment. This is indicated by "Groups/Timepoints" in the figure. Cage 1.4 = Controls, cage 1.3 = Oral treatment, cage 1.2 = Bath treatment. […] The treated groups are compared with an untreated control group, and one group that has been treated orally with teflubenzuron (10 mg/kg of teflubenzuron per kg fish per day for 7 days). […]

sea lice [2] = experiment: Field trial: medicated feed before sea transfer, recapture of tagged fish, sea lice infection (Example 3); assay type: in vivo, wild sea trout (Salmo trutta); conditions: about 3 mg per fish per day for six days in feed before sea transfer; 13 treated fish caught June 20 to August 7
Description: About 2,000 wild sea trout (Salmo trutta) were divided into two groups and marked with Carlin tags in two different colours (yellow or red) so that individuals of the groups could easily be distinguished from each other when observed in the water. The group with yellow Carlin tags were given feed containing hexaflumuron. The dose was about 3 mg of hexaflumuron per fish per day for six days. The feeding was done the last week before they were transferred to the sea in the beginning of May. The control group had red Carlin tags and was fed ordinary fish feed until sea transfer. Both groups of fish were transferred to the sea 200 metres from the river mouth of the Bondhus River in Hordaland in Norway. From sea transfer (May 8) until August 7, neighbouring rivers and estuaries round these rivers were examined every week, using fishing by application of high voltage and net fishing.
Tagged fish was not caught until June 20. From June 20 to August 7, 22 control fish and 13 treated fish were caught. The untreated fish were caught in the lower parts of the rivers and were heavily infected with sea lice. The 13 treated fish were exclusively caught in the estuary around the rivers (in sea water), none were caught in freshwater.

sea lice [3] = experiment: Oral or bath treatment in freshwater before sea transfer, sea lice counts after natural infection (Example 5); assay type: in vivo, sea trout (Salmo trutta); conditions: oral 4 mg per kg daily for 5 days or bath 5 ppm for 30 minutes
Description: The treatment dosage was 9 mg hexaflumuron per kg fish per day for 10 days. This is indicated by "Groups/Timepoints" in the figure; • Figure 2 relates to the trial in Example 2 that was carried out on Atlantic salmon (Salmo salar). […] The treatment dosage varied between 3 - 9 mg hexaflumuron and 9- 12 mg fluazuron per kg fish per day for 7 days. This is indicated by "Groups/Timepoints" in the diagram. […] The treated groups are compared to an untreated control group. The treatment dosage was 4 mg hexaflumuron per kg fish per day for 5 days. This is indicated by "Groups/Timepoints" in the figure. Cage 2 = controls, Cage 4-6 = treated groups, 16.6.97 = time point for sea transfer and 5.8.97= controls treated by bathing with deltamethrin; • Figure 4 relates to the trial described in Example 5, which was carried out on sea trout (Salmo trutta). […] The treated groups are compared with an untreated control group. The dosage for oral treatment was 4 mg hexaflumuron per kilo fish per day for 5 days, and 5 ppm hexaflumuron as a 30 minute bath treatment. This is indicated by "Groups/Timepoints" in the figure. Cage 1.4 = Controls, cage 1.3 = Oral treatment, cage 1.2 = Bath treatment. […] The treated groups are compared with an untreated control group, and one group that has been treated orally with teflubenzuron (10 mg/kg of teflubenzuron per kg fish per day for 7 days). The dosage for oral treatment was 5.6 mg hexaflumuron per kg fish per day for 7 days, and 5 ppm hexaflumuron as a 30 minute bath treatment. […] End of treatment: 22.10.97, Sea transfer: 23.10.97. T1 = 3 weeks post end of treatment, T2 = 5 weeks post end of treatment, T3 = 9 weeks post end of treatment, T4 = 12 weeks post end of treatment; • Figure 6 relates to the trial in Example 6 at time points 4-6, with the same trial parameters as for Figure 5. […]
About 300 sea trout (Salmo trutta) of an average weight of 160 grams were divided into three groups of 100 fish each. […] Lice from 6-10 fish from each cage were counted every third week to assess whether there was any difference in the number of lice between the cages. […]

[4] = Chemical analysis of muscle/skin tissue after oral treatment (Example 6); assay type: in vivo, Atlantic salmon (Salmo salar); conditions: atlantic salmon, 5.6 mg/kg, five fish, read-out: average concentration of hexaflumuron in muscle/skin tissue
Description: Two days after oral treatment had been completed and at timepoint 3 (65 days after completed medication), muscle/skin tissue from five fish in group 1 was chemically analysed to check the concentration of hexaflumuron. The average concentration of hexaflumuron two days after completed medication was 4.4 µg/g tissue. 65 days after, the average concentration level was 1.2 µg/g tissue.

O=C(NC(=O)c1c(F)cccc1F)Nc1cc(Cl)c(OC(F)(F)C(F)F)c(Cl)c1 [hexaflumuron]
reduction of sensitive chalimus and pre-adult stages (sea lice [1]): about 95% | reduced the number of lice as compared to the control group (sea lice [1]; medicated pellets, 7.6 - 9.4°C): more than 90% | signs of sea lice infections in recaptured fish (sea lice [2]): None of the treated fish showed signs of sea lice infections | protection after transfer to sea (sea lice [3]): at least 8 weeks | number of lice larger than Chalimus II versus control (sea lice [3]; 2, 5 and 8 weeks after sea transfer): significantly lower | concentration at 1560 h ([4]; 65 days after completed oral medication): 1200 ng/g | concentration at 48 h ([4]; two days after completed oral medication (5.6 mg per kg, 7 days)): 4400 ng/g
